Counter-ions that a name gives are not always drawn. Like-named read-outs stand apart in the source and are kept apart here. Marks after values point to notes of the source that are not given here.

One test concerns the target PfcProRS (Plasmodium falciparum, UniProt Q8I5R7). The test can be described thus: TR-FRET ligand displacement assay with tracer MAT379, PfcProRS. It counts as binding. A general note: TR-FRET usually uses a lanthanide donor and a delayed reading to cut background.
For the next test, the target named is T1, HsProRS (Homo sapiens, UniProt P07814).
T1 sequence (P07814 1007-1512 limits assumed): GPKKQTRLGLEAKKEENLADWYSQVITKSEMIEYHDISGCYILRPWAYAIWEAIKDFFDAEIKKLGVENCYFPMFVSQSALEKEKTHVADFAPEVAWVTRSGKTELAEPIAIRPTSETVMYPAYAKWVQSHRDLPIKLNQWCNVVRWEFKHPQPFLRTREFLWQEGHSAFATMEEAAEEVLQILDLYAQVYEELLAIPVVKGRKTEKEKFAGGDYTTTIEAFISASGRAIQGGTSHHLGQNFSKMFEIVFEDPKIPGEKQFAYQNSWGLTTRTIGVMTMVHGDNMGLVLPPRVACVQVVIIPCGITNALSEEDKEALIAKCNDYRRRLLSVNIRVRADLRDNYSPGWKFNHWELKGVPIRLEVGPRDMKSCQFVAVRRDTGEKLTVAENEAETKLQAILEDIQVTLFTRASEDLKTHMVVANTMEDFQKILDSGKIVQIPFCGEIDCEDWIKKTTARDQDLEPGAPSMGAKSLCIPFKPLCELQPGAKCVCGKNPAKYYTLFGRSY
The test can be described thus: TR-FRET ligand displacement assay with tracer MAT379, HsProRS. The class given is binding.

In the next test the test system is P. falciparum Dd2-2D4. The test can be described thus: P. falciparum asexual blood stage growth assay, wild-type Dd2-2D4. To be noted: for EC50: Plasmodium falciparum.
Test [1] concerns halofuginone-induced (HFG-induced) P. falciparum. The test can be described thus: P. falciparum asexual blood stage growth assay, halofuginone-induced parasites. To be noted: Plasmodium falciparum.
Protocol: (§1) Asexual blood stage (ABS) P. falciparum parasites were treated with test compounds at varying concentrations for 72 h, followed by quantification of parasite growth by SYBR Green staining.
(§2) P. falciparum Asexual Blood Stage Growth Assay: This assay was performed as previously described.
The mark [2] stands for this setting: PfcProRS (KD [nM]) +proline, 100 μM Pro.
[3] abbreviates: no proline, no ATP, read-out: PfcProRS (KD [nM]) −.
The mark [4] stands for this setting: no proline, no ATP, read-out: HsProRS (KD [nM]) −.
The mark [5] stands for this setting: read-out: HsProRS (KD [nM]) +proline, 100 μM Pro.
The mark [6] stands for this setting: DD2, 72 h, read-out: Dd2 (EC50 [nM]) wt.
Setting [7] is: DD2, 72 h, read-out: Dd2 (EC50 [nM]) Halofuginone-induced.
Setting [8] is: absence of proline, read-out: KD for PfcProRS.
The mark [9] stands for this setting: DD2, read-out: EC50 against Dd2-2D4 wildtype parasites.
Where [10] appears, read: read-out: EC50 in halofuginone-induced parasites.
Where [11] appears, read: absence of proline, read-out: KD for HsProRS.
Setting [12] is: read-out: PfcProRS (KD [nM]) +proline, 100 μM Pro.

Chain of PfcProRS (Q8I5R7 whole entry): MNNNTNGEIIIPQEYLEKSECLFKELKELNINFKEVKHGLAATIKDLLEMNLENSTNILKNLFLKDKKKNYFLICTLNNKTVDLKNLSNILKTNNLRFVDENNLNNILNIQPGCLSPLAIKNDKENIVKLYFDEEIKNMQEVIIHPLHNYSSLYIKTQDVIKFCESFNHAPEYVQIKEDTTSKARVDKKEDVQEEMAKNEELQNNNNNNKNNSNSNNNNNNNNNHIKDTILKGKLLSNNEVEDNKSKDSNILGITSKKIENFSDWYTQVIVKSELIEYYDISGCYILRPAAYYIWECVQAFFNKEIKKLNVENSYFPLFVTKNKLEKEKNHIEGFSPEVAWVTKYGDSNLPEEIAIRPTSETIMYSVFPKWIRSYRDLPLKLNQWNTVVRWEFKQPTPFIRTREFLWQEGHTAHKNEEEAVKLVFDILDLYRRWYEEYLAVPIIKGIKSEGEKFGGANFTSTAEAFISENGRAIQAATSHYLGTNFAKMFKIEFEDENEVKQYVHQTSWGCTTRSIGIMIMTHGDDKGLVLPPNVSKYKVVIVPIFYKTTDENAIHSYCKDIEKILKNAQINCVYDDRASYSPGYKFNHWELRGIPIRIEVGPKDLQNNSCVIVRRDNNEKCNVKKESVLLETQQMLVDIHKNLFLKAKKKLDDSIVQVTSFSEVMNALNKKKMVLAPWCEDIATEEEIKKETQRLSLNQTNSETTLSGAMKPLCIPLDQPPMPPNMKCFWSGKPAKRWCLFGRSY
Protocol for P. falciparum Dd2-2D4: as §1, §2

Broadly, the Kd is the free concentration of one partner at which half of the binding sites on the other are occupied at equilibrium, for simple one-to-one binding. As a reminder, the EC50 is the concentration that produces a half-maximal response. For `CC(C)(C)OC(=O)N[C@H]1CC[C@@H](C(=O)Nc2nccnc2C(=O)NC2Cc3ccccc3C2)CC1` [Compound 6, tert-butyl ((1s,4s)-4-((3-((2,3-dihydro-1H-inden-2-yl)carbamoyl)pyrazin-2-yl)carbamoyl)cyclohexyl)carbamate], the dissociation constant (Kd) at PfcProRS (setting [2]) amounted to 26.3 nM; at PfcProRS (setting [3]) it was 31.5 nM; at HsProRS (setting [4]), 56.8 nM; on HsProRS (setting [5]), 82.7 nM. Moreover, the values for the EC50 (with P. falciparum Dd2-2D4 (setting [6]); in test [1] (setting [7])) were 508 nM and 7930 nM, respectively.
On to `O=C(NS(=O)(=O)N1CCN(C(=O)Nc2nccnc2C(=O)NC2Cc3ccccc3C2)CC1)O[C@H]1CCCNC1` [MAT445, (S)-piperidin-3-yl ((4-((3-((2,3-dihydro-1H-inden-2-yl)carbamoyl)pyrazin-2-yl)carbamoyl)piperazin-1-yl)sulfonyl)carbamate], for which, at PfcProRS (setting [8]), the Kd worked out at 1110 nM. In addition, the EC50 in the test with P. falciparum Dd2-2D4 (setting [6]) was 1160 nM; with P. falciparum Dd2-2D4 (setting [9]), 1160 nM; in test [1] (setting [7]), 7620 nM; in test [1] (setting [10]), more than 10000 nM.
Regarding `O=C(NC1Cc2ccccc2C1)c1nccnc1NC(=O)N1CCC(CCO)CC1` [Compound 12, N-(2,3-dihydro-1H-inden-2-yl)-3-(4-(2-hydroxyethyl)piperidine-1-carboxamido)pyrazine-2-carboxamide], the dissociation constant (Kd) worked out at 339 nM on PfcProRS (setting [2]), 515 nM at PfcProRS (setting [3]), 687 nM on HsProRS (setting [4]) and 150 nM on HsProRS (setting [5]). Besides, the half-maximal effective concentration (EC50) in the test with P. falciparum Dd2-2D4 (setting [6]) stood at 153 nM; in test [1] (setting [7]), 6350 nM.
As to `O=C(NC1Cc2ccccc2C1)c1nccnc1NC(=O)C1(O)CCCCC1` [Compound 15, N-(2,3-dihydro-1H-inden-2-yl)-3-(1-hydroxycyclohexane-1-carboxamido)pyrazine-2-carboxamide], the results for the Kd on HsProRS (setting [4]) and at HsProRS (setting [5]) were 2700 nM and 21.8 nM, respectively. Moreover, the figures for the EC50 (in the test on P. falciparum Dd2-2D4 (setting [6]); in test [1] (setting [7])) were 1500 nM and 3510 nM, respectively.
`O=C(CCCCCNC(=S)NC1CCCCC1)NCC1CCN(C(=O)Nc2nccnc2C(=O)NC2Cc3ccccc3C2)CC1` [MAT518]: on PfcProRS, the “selectivity for PfcProRS compared to HsProRS” value was approximately 7 fold. Also, the dissociation constant Kd on PfcProRS (setting [2]) is 288 nM; at PfcProRS (setting [8]), 372 nM; on HsProRS, more than 5090 nM; at HsProRS (setting [11]), 2760 nM. Besides, the EC50 in the test with P. falciparum Dd2-2D4 (setting [6]) was determined as 1820 nM; in test [1] (setting [7]), 1500 nM.
Turning to `Nc1ncnc2c1ncn2[C@@H]1O[C@H](COS(=O)(=O)NC(=O)[C@@H]2CCCN2)[C@@H](O)[C@H]1O` [ProSA (25), 5′-O—[N-(L-Prolyl)-sulfamoyl]adenosine, reference compound], the EC50 in the test on P. falciparum Dd2-2D4 (setting [6]) came out at 151 nM; in test [1] (setting [7]), 137 nM.
Turning to `O=C(NS(=O)(=O)N1CCN(C(=O)Nc2nccnc2C(=O)NC2Cc3ccccc3C2)CC1)O[C@H]1CCCN[C@@H]1CC(O)Cn1cnc2cc(Br)c(Cl)cc2c1=O` (stereo partly drawn) [MAT583, (2R,3S)-2-(3-(7-bromo-6-chloro-4-oxoquinazolin-3(4H)-yl)-2-hydroxypropyl)piperidin-3-yl ((4-((3-((2,3-dihydro-1H-inden-2-yl)carbamoyl)pyrazin-2-yl)carbamoyl)piperazin-1-yl)sulfonyl)carbamate 2,2,2-trifluoroacetate], the Kd at PfcProRS (setting [2]) was 19 nM; at PfcProRS (setting [3]) it was 187 nM; at HsProRS, 150 nM; on HsProRS (setting [4]), 687 nM. The results for the EC50 (with P. falciparum Dd2-2D4 (setting [6]); in test [1] (setting [7])) were 2270 nM and 7750 nM, respectively.
For `NCCCCCC(=O)NC1CCN(C(=O)Nc2nccnc2C(=O)NC2Cc3ccccc3C2)CC1` [Compound 42, 3-(4-(6-aminohexanamido)piperidine-1-carboxamido)-N-(2,3-dihydro-1H-inden-2-yl)pyrazine-2-carboxamide dihydrochloride], the dissociation constant Kd worked out at 295 nM at PfcProRS (setting [2]), 433 nM on PfcProRS (setting [3]), 780 nM at HsProRS (setting [5]) and 674 nM at HsProRS (read-out: HsProRS (KD [nM]) −). In addition, the EC50 turned out to be 3120 nM in the test on P. falciparum Dd2-2D4 (setting [6]) and 9080 nM in test [1] (setting [7]).
On to `O=C(CCCCCNC(=S)Nc1ccccc1)NCC1CCN(C(=O)Nc2nccnc2C(=O)NC2Cc3ccccc3C2)CC1` [MAT517], for which the dissociation constant (Kd) worked out at 95.6 nM on PfcProRS (setting [3]), 80.2 nM at PfcProRS (setting [12]), 865 nM at HsProRS (setting [4]) and 1680 nM on HsProRS (setting [5]). Besides, the concentration for a half-maximal effect (EC50) with P. falciparum Dd2-2D4 (setting [6]) came to 2680 nM; in test [1] (setting [7]), 6840 nM.
Regarding `CC(C)(C)OC(=O)NCCCCCC(=O)NCC1CCN(C(=O)Nc2nccnc2C(=O)NC2Cc3ccccc3C2)CC1` [Compound 43, tert-butyl (6-(((1-((3-((2,3-dihydro-1H-inden-2-yl)carbamoyl)pyrazin-2-yl)carbamoyl)piperidin-4-yl)methyl)amino)-6-oxohexyl)carbamate], the equilibrium dissociation constant (Kd) on PfcProRS (setting [2]) is 320 nM; on PfcProRS (setting [3]), 375 nM; at HsProRS (setting [4]), 611 nM; at HsProRS (setting [5]), 2280 nM. Also, the values for the half-maximal effective concentration (EC50) (with P. falciparum Dd2-2D4 (setting [6]); in test [1] (setting [7])) were 3330 nM and 5090 nM, respectively.
As for `CC(C)(C)OC(=O)N1CCC[C@H](OC(=O)NS(=O)(=O)N2CCN(C(=O)Nc3nccnc3C(=O)NC3Cc4ccccc4C3)CC2)[C@H]1CC(=O)Cn1cnc2cc(Br)c(Cl)cc2c1=O` (relative stereo) [Compound 37, tert-butyl trans-2-(3-(7-bromo-6-chloro-4-oxoquinazolin-3(4H)-yl)-2-oxopropyl)-3-((((4-((3-((2,3-dihydro-1H-inden-2-yl)carbamoyl)pyrazin-2-yl)carbamoyl)piperazin-1-yl)sulfonyl)carbamoyl)oxy)piperidine-1-carboxylate], the figures for the Kd at PfcProRS (setting [2]) and at PfcProRS (setting [3]) were 175 nM and 246 nM, respectively. Also, in the test on P. falciparum Dd2-2D4 (10 μM, compound had <50% growth inhibition), the “percent growth at 10 μM (Dd2 wt)” value was found to be 59% †. In test [1] (setting [7]), the EC50 came out at 7150 nM.
`O=C(CCCCCNC(=S)Nc1ccccc1)NC1CCN(C(=O)Nc2nccnc2C(=O)NC2Cc3ccccc3C2)CC1` [MAT482]: the Kd on PfcProRS (setting [3]) amounted to 78.3 nM; on PfcProRS (setting [12]), 61.6 nM; on HsProRS (setting [4]) it was 516 nM; at HsProRS (setting [5]), 1360 nM. Further, the 50% effective concentration (EC50) in the test on P. falciparum Dd2-2D4 (setting [6]) amounted to 2720 nM; in test [1] (setting [7]), 5540 nM.
With `O=C(CCCCCNC(=O)Nc1ccccc1)NC1CCN(C(=O)Nc2nccnc2C(=O)NC2Cc3ccccc3C2)CC1` [MAT515], the equilibrium dissociation constant (Kd) was found to be 46.6 nM on PfcProRS (setting [2]), 70.4 nM at PfcProRS (setting [8]), 504 nM at HsProRS and 169 nM on HsProRS (setting [11]). Besides, the EC50 in the test on P. falciparum Dd2-2D4 (setting [6]) is 381 nM; in test [1] (setting [7]) it was 3300 nM.
For the compound `O=C(NS(=O)(=O)N1CCN(C(=O)Nc2nccnc2C(=O)NC2Cc3ccccc3C2)CC1)O[C@@H]1CCCNC1` [MAT447, (R)-piperidin-3-yl ((4-((3-((2,3-dihydro-1H-inden-2-yl)carbamoyl)pyrazin-2-yl)carbamoyl)piperazin-1-yl)sulfonyl)carbamate], the dissociation constant (Kd) at PfcProRS (setting [8]) is 2460 nM. Also, the concentration for a half-maximal effect (EC50) is 6250 nM with P. falciparum Dd2-2D4 (setting [6]), 6250 nM in the test on P. falciparum Dd2-2D4 (setting [9]), 6990 nM in test [1] (setting [7]) and more than 10000 nM in test [1] (setting [10]).
For `CNc1nccnc1C(=O)NC1Cc2ccccc2C1` [Compound 46, N-(2,3-dihydro-1H-inden-2-yl)-3-(methylamino)pyrazine-2-carboxamide], the Kd at PfcProRS (setting [2]) was more than 2180 nM; on PfcProRS (setting [3]), more than 2860 nM; at HsProRS, more than 5090 nM; at HsProRS (setting [4]) it was more than 8720 nM. The 50% effective concentration (EC50) in the test with P. falciparum Dd2-2D4 (setting [6]) was 8110 nM.
As for `O=C(Nc1nccnc1C(=O)NC1Cc2ccccc2C1)c1ccccc1` [Compound 21, 3-benzamido-N-(2,3-dihydro-1H-inden-2-yl)pyrazine-2-carboxamide], the dissociation constant Kd was 1430 nM at PfcProRS (setting [2]), more than 2860 nM at PfcProRS (setting [3]), 7830 nM at HsProRS (setting [4]) and 140 nM on HsProRS (setting [5]). In the test on P. falciparum Dd2-2D4 (setting [6]), the EC50 is 9600 nM.
As to `CC(C)(C)OC(=O)NC1(C(=O)Nc2nccnc2C(=O)NC2Cc3ccccc3C2)CCCCC1` [Compound 16, tert-butyl (1-((3-((2,3-dihydro-1H-inden-2-yl)carbamoyl)pyrazin-2-yl)carbamoyl)cyclohexyl)carbamate], the Kd at PfcProRS (setting [2]) is more than 2180 nM; at PfcProRS (setting [3]), more than 2860 nM; at HsProRS, more than 5090 nM; on HsProRS (setting [4]), more than 8720 nM. Besides, the 50% effective concentration (EC50) in the test on P. falciparum Dd2-2D4 (setting [6]) stood at 6110 nM.
For the compound `NC1(C(=O)Nc2nccnc2C(=O)NC2Cc3ccccc3C2)CCCCC1` [Compound 17, 3-(1-aminocyclohexane-1-carboxamido)-N-(2,3-dihydro-1H-inden-2-yl)pyrazine-2-carboxamide], the equilibrium dissociation constant (Kd) at PfcProRS (setting [2]) was 131 nM; at PfcProRS (setting [3]) it was 1390 nM; at HsProRS (setting [4]), 4430 nM; at HsProRS (setting [5]), 25.5 nM. Also, the EC50 in the test on P. falciparum Dd2-2D4 (setting [6]) came to 5790 nM.

For the origin of these results see patent US20250228855A1, “PYRAZINAMIDE COMPOUNDS” (The General Hospital Corporation, priority 2022, published 2025).
